Assay results as given in patent US10342836B2, “Composition having a function for alleviating premenstrual syndrome and menstrual pain” (AMOREPACIFIC CORPORATION, priority 2013, dated 2019).

Test system: women of child-bearing ages
Test: Evaluation of improvement in premenstrual syndrome and menstrual pain by questionnaire before and after about 4 weeks of oral tablets
Assay type: in vivo, human
Source text: The American Psychiatric Association presents the following diagnosis standard for premenstrual syndrome.
According to the standard, women who satisfy at least 5 of the following 11 items and at least one of the first 4 items were selected for test.
(1) Quick change in emotion; sudden sadness, anger or rage
(2) Persistent severe anger and uneasiness
(3) Uneasiness and tension
(4) Depression and hopelessness
(5) Disinterest in daily lives
(6) Fatigue or low energy
(10) Difficulty in emotion control
(11) Breast tenderness, headache, edema, muscle or joint pain and weight gain
For the test, 350 mg tablets containing 100 wt % of the ginseng fruit extract of
A table top tablet making machine (Erweka, Germany) was used.
40 women were selected from 48 women of child-bearing ages (in their 20s to 50s) according to the diagnosis standard. They were divided into 4 groups: i.e., unadministered group, red ginseng group, ginsenoside Re group, and ginseng fruit group. Each group was composed of 10 subjects.
The red ginseng group was asked to take the red ginseng-containing tablets for 4 weeks, twice a day, two tablets once. That is to say, 1400 mg/day of red ginseng extract was administered to them.
The ginsenoside Re group was asked to take tablets containing ginsenoside Re as an active ingredient twice a day, two tablets once. […] The content of ginsenoside Re was determined based on the analysis result shown in FIG. 1 for comparison of the effect of improving premenstrual syndrome and menstrual pain of ginseng fruit extract and only ginsenoside Re contained therein.
The ginseng fruit group was asked to take the ginseng fruit extract-containing tablets for 4 weeks, twice a day, two tablets once. That is to say, 1400 mg/day of ginseng fruit extract was administered to them.
The 40 women were asked to answer questionnaires first after menstruation and, after the administration of nothing, the red ginseng extract or the ginseng fruit extract, to answer questionnaires after the next menstruation was over (about 4 weeks later). The improvement in the symptoms of premenstrual syndrome was evaluated by monitoring the change in total scores based on the questionnaires. One point was given for each item.

[1] = group total, n = 10 women, about 4 weeks, 1400 mg/day extract or 240 mg/day ginsenoside Re
[2] = n = 10 per group, about 4 weeks, 1400 mg/day extract or 240 mg/day ginsenoside Re

## CC(C)=CCC[C@](C)(O[C@@H]1O[C@H](CO)[C@@H](O)[C@H](O)[C@H]1O)[C@H]1CC[C@]2(C)[C@@H]1[C@H](O)C[C@@H]1[C@@]3(C)CC[C@H](O)C(C)(C)[C@@H]3[C@@H](O[C@@H]3O[C@H](CO)[C@@H](O)[C@H](O)[C@H]3O[C@@H]3O[C@@H](C)[C@H](O)[C@@H](O)[C@H]3O)C[C@]12C [Ginsenoside Re, ginsenoside Re]
[1]
  Total score, difference (before minus after administration): 9
  Total score, difference in percent of the score before administration: 12%
Group total, n = 10 women, after next menstruation (about 4 weeks), tablets twice a day, two tablets once: 1400 mg/day extract or 240 mg/day ginsenoside Re
  Total score (premenstrual syndrome questionnaire), after administration: 66
Group total, n = 10 women, one point per item (11 items), questionnaire after menstruation, before administration
  Total score (premenstrual syndrome questionnaire), before administration: 75
[2]
  Number of women who felt the symptoms, difference (before minus after): 2
  Number of women who felt the symptoms, difference in percent: 20%
N = 10 per group, after about 4 weeks, 1400 mg/day extract or 240 mg/day ginsenoside Re
  Number of women who felt the symptoms of premenstrual syndrome, after administration: 8
N = 10 per group, before administration
  Number of women who felt the symptoms of premenstrual syndrome, before administration: 10
